In patent US8927717B1, “Thiochromeno[2,3-c]quinolin-12-one derivatives, preparation method and application thereof” (National Defense Medical Center, priority 2014, dated 2015):

Tests used:
COLO 205 = type: cell-based
HOP-92 = type: cell-based; details: Non-small cell lung cancer; 10^−5 molar; 48 hours; SRB
M14 = type: cell-based
RPMI-8226 = type: cell-based
SK-MEL-5 = type: cell-based
CAKI-1 = type: cell-based
BT-549 = type: cell-based
[1] = molecular target: T1, TOP II (Topoisomerase II) (Homo sapiens, UniProt P11388); test: TOP II-catalyzed relaxation of plasmid DNA assay; type: biochemical
T1 construct: purchased TopoGEN TG-2000H-1
T1 sequence (P11388 whole entry): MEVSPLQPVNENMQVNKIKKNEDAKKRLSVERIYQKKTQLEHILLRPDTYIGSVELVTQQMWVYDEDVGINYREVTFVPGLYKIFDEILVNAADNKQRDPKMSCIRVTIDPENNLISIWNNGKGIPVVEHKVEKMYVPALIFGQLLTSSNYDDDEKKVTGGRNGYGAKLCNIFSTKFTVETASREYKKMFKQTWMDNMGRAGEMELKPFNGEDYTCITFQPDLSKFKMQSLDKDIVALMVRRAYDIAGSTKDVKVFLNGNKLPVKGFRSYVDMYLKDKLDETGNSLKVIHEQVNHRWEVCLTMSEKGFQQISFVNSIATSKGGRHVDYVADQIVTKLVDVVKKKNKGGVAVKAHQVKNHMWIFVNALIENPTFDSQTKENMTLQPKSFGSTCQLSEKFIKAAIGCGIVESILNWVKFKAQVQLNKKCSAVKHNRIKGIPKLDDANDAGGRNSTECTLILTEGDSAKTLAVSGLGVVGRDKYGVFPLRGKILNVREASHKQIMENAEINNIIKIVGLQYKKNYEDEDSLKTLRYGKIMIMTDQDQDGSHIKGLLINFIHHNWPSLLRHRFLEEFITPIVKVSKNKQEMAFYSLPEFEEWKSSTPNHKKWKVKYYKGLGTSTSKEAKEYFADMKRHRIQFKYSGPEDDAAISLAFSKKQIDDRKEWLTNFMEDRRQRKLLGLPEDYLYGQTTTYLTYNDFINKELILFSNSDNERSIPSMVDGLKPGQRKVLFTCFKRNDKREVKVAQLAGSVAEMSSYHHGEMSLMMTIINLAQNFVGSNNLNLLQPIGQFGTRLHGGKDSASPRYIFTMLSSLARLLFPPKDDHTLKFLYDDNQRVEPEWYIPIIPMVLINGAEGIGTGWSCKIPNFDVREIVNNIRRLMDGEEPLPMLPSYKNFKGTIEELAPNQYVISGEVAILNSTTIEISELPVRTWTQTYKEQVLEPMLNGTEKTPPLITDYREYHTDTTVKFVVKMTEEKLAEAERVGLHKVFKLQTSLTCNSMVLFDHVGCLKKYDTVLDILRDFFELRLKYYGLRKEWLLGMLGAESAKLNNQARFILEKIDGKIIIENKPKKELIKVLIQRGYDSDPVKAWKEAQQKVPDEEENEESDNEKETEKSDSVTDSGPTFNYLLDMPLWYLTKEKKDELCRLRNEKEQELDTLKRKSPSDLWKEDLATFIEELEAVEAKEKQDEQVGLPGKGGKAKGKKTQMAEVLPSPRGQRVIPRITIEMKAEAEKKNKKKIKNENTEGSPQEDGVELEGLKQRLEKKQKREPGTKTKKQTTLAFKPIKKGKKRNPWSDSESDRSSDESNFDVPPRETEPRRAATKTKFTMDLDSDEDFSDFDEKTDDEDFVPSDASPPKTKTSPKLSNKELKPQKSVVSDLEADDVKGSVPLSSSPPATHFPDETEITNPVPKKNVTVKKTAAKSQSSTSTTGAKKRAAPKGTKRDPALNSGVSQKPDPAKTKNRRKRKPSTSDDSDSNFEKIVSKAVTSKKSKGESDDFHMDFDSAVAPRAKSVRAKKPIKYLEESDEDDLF
Description: We also performed TOP II-catalyzed relaxation of plasmid DNA assays (FIG. 5-7) to evaluate if compounds could inhibit TOP II. […] The IC50 value of compounds 7, N7, N8, N14, N15, N18, and N19 were about 10, 10, 1, 10, 5, 1, and 1 μM, respectively (detect by TopoGEN TG2005H, TG-2000H-1).

SF-539 = type: cell-based
OVCAR-4 = type: cell-based
TOP I (Topoisomerase I) [2] = molecular target: T2, TOP I (Topoisomerase I) (Homo sapiens, UniProt P11387); test: TOP I mediated supercoiled DNA relaxation assay; type: biochemical; details: primary assay at 25 and/or 50 μM
T2 construct: purchased TopoGEN TG2005H
T2 sequence (P11387 1-765): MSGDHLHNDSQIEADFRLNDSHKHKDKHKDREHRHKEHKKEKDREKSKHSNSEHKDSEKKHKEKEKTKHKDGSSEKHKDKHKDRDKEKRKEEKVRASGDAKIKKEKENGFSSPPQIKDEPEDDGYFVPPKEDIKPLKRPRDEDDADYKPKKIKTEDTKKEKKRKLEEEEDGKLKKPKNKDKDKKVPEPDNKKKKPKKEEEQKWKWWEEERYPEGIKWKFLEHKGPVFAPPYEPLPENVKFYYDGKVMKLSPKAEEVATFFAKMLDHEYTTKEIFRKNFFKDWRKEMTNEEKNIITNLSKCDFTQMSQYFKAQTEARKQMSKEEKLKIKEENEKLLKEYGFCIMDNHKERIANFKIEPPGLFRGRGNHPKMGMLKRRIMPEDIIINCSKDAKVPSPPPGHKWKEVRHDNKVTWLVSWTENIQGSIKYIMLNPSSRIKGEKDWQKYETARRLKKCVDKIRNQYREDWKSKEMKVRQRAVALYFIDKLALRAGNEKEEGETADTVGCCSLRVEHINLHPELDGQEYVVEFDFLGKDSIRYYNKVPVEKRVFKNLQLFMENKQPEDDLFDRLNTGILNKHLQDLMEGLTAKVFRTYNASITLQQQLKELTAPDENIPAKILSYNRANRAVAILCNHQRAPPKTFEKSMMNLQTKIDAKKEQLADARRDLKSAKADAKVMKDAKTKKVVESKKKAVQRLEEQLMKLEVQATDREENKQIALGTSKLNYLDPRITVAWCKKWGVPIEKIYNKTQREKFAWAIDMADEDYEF
Description: According to the cell cytotoxicity, compounds 5, 7, 8, 16, 19, N2, N7, N8, N9, N14-N19, and N25 were also selected for primary TOP I and II activities assays at 25 and/or 50 μM (FIG. 2-4).

CCRF-CEM = type: cell-based
PC-3 = type: cell-based
SK-MEL-2 = type: cell-based
IGROV1 = type: cell-based
SK-OV-3 = type: cell-based
HCC-2998 = type: cell-based
HCT-116 = type: cell-based
NCI-H460 = type: cell-based
OVCAR-3 = type: cell-based
HL-60(TB) = type: cell-based
TOP I (Topoisomerase I) [3] = molecular target: T2, TOP I (Topoisomerase I); test: TOP I mediated supercoiled DNA relaxation assay; type: biochemical; details: five different concentrations; TopoGEN TG2005H, TG-2000H-1
UACC-257 = type: cell-based
[4] = Colon cancer, 10^−5 molar, 48 hours, SRB
[5] = Homo sapiens, COLO 205, five dose
[6] = Melanoma, 10^−5 molar, 48 hours, SRB
[7] = Leukemia, 10^−5 molar, 48 hours, SRB
[8] = Homo sapiens, SK-MEL-5, five dose
[9] = Homo sapiens, SF-539, five dose
[10] = Ovarian cancer, 10^−5 molar, 48 hours, SRB
[11] = Homo sapiens, SK-Mel-2, five dose
[12] = Homo sapiens, HCC-2998, five dose
[13] = Homo sapiens, HCT-116, five dose
[14] = Homo sapiens, NCI-H460, five dose

CN(C)CCNc1nc2ccccc2c2c(=O)c3cc(Cl)ccc3sc12 [Compound N7, 10-Chloro-6-((2-(dimethylamino)ethyl)amino)-12H-thiochromeno[2,3-c]quinolin-12-one]
TGI (COLO 205; COLO 205, five dose): 3.17 µM | Growth percent COLO 205 (COLO 205; [4]): −82.85% | GI50 (COLO 205; [5]): 1.66 µM | LC50 (COLO 205; [5]): 6.05 µM | Growth percent HOP-92 (HOP-92): −10.12% | GI50 (M14; Homo sapiens, M14, five dose): 1.85 µM | LC50 (M14; Homo sapiens, M14, five dose): 6.4 µM | TGI (M14; M14, five dose): 3.44 µM | Growth percent M14 (M14; [6]): −92.77% | GI50 (RPMI-8226; Homo sapiens, RPMI-8226, five dose): 1.76 µM | CC50 (RPMI-8226; Homo sapiens, RPMI-8226, five dose, read-out: LC50 (the source's name)): 7.69 µM | Growth percent RPMI-8226 (RPMI-8226; [7]): −37.68% | TGI (RPMI-8226; RPMI-8226, five dose): 3.68 µM | GI50 (SK-MEL-5; [8]): 1.57 µM | LC50 (SK-MEL-5; [8]): 8.21 µM | Growth percent SK-MEL-5 (SK-MEL-5; [6]): 18.83% | TGI (SK-MEL-5; SK-MEL-5, five dose): 3.59 µM | TGI (CAKI-1; CAKI-1, five dose): 2.80 µM | GI50 (CAKI-1; Homo sapiens, CAKI-1, five dose): 1.43 µM | CC50 (CAKI-1; Homo sapiens, CAKI-1, five dose, read-out: LC50 (the source's name)): 5.49 µM | Growth percent CAKI-1 (CAKI-1; Renal cancer, 10^−5 molar, 48 hours, SRB): 34.60% | TGI (BT-549; BT-549, five dose): 2.27 µM | Growth percent BT-549 (BT-549; Breast cancer, 10^−5 molar, 48 hours, SRB): 91.29% | GI50 (BT-549; Homo sapiens, BT-549, five dose): 8.91 µM | CC50 (BT-549; Homo sapiens, BT-549, five dose, read-out: LC50 (the source's name)): 5.33 µM | IC50 ([1]; five different concentrations, TopoGEN TG2005H, TG-2000H-1, read-out: IC50 value, TOP II mediated supercoiled DNA relaxation): ~10 µM | inhibitory effect in TOP II relaxation assay compared with VP-16 ([1]; primary assay at 25 and/or 50 μM): more potent inhibitory effects than the positive agent VP-16 | Growth percent SF-539 (SF-539; CNS cancer, 10^−5 molar, 48 hours, SRB): 48.73% | GI50 (SF-539; [9]): 1.68 µM | LC50 (SF-539; [9]): 5.67 µM | TGI (SF-539; SF-539, five dose): 3.08 µM | GI50 (OVCAR-4; Homo sapiens, OVCAR-4, five dose): 1.19 µM | CC50 (OVCAR-4; Homo sapiens, OVCAR-4, five dose, read-out: LC50 (the source's name)): 6.35 µM | TGI (OVCAR-4; OVCAR-4, five dose): 2.75 µM | Growth percent OVCAR-4 (OVCAR-4; [10]): 60.67% | inhibitory effect in TOP I activity assay compared with CPT (TOP I (Topoisomerase I) [2]): more potent inhibitory effects than CPT | TGI (CCRF-CEM; CCRF-CEM, five dose): 3.41 µM | GI50 (CCRF-CEM; Homo sapiens, CCRF-CEM, five dose): 1.63 µM | CC50 (CCRF-CEM; Homo sapiens, CCRF-CEM, five dose, read-out: LC50 (the source's name)): 7.15 µM | Growth percent CCRF-CEM (CCRF-CEM; [7]): −53.54% | GI50 (PC-3; Homo sapiens, PC-3, five dose): 1.47 µM | CC50 (PC-3; Homo sapiens, PC-3, five dose, read-out: LC50 (the source's name)): 5.74 µM | TGI (PC-3; PC-3, five dose): 2.90 µM | Growth percent PC-3 (PC-3; Prostate cancer, 10^−5 molar, 48 hours, SRB): 33.32% | GI50 (SK-MEL-2; [11]): 1.8 µM | LC50 (SK-MEL-2; [11]): 6.12 µM | Growth percent SK-MEL-2 (SK-MEL-2; [6]): −7.83% | TGI (SK-MEL-2; SK-Mel-2, five dose): 3.32 µM | GI50 (IGROV1; Homo sapiens, IGROV-1, IGROV1, five dose): 1.7 µM | CC50 (IGROV1; Homo sapiens, IGROV-1, IGROV1, five dose, read-out: LC50 (the source's name)): 6.58 µM | TGI (IGROV1; IGROV1, five dose): 3.34 µM | Growth percent IGROV1 (IGROV1; [10]): 33.20% | GI50 (SK-OV-3; Homo sapiens, SK-OV-3, five dose): 1.68 µM | CC50 (SK-OV-3; Homo sapiens, SK-OV-3, five dose, read-out: LC50 (the source's name)): 5.58 µM | Growth percent SK-OV-3 (SK-OV-3; [10]): 70.10% | TGI (SK-OV-3; SK-OV-3, five dose): 3.06 µM | Growth percent HCC-2998 (HCC-2998; [4]): −83.65% | TGI (HCC-2998; HCC-2998, five dose): 3.38 µM | GI50 (HCC-2998; [12]): 1.68 µM | LC50 (HCC-2998; [12]): 6.82 µM | Growth percent HCT-116 (HCT-116; [4]): −96.59% | TGI (HCT-116; HCT-116, five dose): 3.18 µM | GI50 (HCT-116; [13]): 1.57 µM | LC50 (concentration killing 50% of cells) (HCT-116; [13]): 6.45 µM | GI50 (NCI-H460; [14]): 1.76 µM | LC50 (NCI-H460; [14]): 6.5 µM | TGI (NCI-H460; NCI-H460, five dose): 3.38 µM | Growth percent NCI-H460 (NCI-H460; Non-small cell lung cancer, 10^−5 molar, 48 hours, SRB): −71.14% | GI50 (OVCAR-3; Homo sapiens, OVCAR-3, five dose): 1.61 µM | CC50 (OVCAR-3; Homo sapiens, OVCAR-3, five dose, read-out: LC50 (the source's name)): 5.58 µM | TGI (OVCAR-3; OVCAR-3, five dose): 3.00 µM | Growth percent OVCAR-3 (OVCAR-3; [10]): 19.74% | TGI (HL-60(TB); HL-60(TB), five dose): 3.49 µM | GI50 (HL-60(TB); Homo sapiens, HL-60(TB), five dose): 1.76 µM | CC50 (HL-60(TB); Homo sapiens, HL-60(TB), five dose, read-out: LC50 (the source's name)): 6.95 µM | Growth percent HL-60(TB) (HL-60(TB); [7]): −47.40% | IC50 (TOP I (Topoisomerase I) [3]): ~10 µM | GI50 (UACC-257; Homo sapiens, UACC-257, five dose): 1.74 µM | CC50 (UACC-257; Homo sapiens, UACC-257, five dose, read-out: LC50 (the source's name)): 5.93 µM | Growth percent UACC-257 (UACC-257; [6]): −48.22% | TGI (UACC-257; UACC-257, five dose): 3.21 µM
